In experiment [1] the test system is oyster hemocytes. It is filed as cell-based.
In experiment [2] the test system is 3-day old cyprid. The settings on record: in vivo.

The record followed here is US10865316B2 (Clemson University Research Foundation, priority 2015, dated 2020).

“Also recorded” adds a separate entry of the source.

For the substance “pGlu Gly Val Cys Cys Gly Tyr Lys Leu Cys His Hyp Cys-NH2 [SEQ ID NO: 13]”, in experiment [1], the “apoptosis in oyster hemocytes” value is on record as “cause apoptosis”. The cyprid settlement entry in experiment [2] is given as “inhibited cyprid settlement; also recorded: promoted settlement”.
